Test results as given in paper PMC8070189, “Native Structure-Based Peptides as Potential Protein–Protein Interaction Inhibitors of SARS-CoV-2 Spike Protein and Human ACE2 Receptor” (Molecules, 2021).

Target: RBD domain of SARS-CoV-2 protein (Severe acute respiratory syndrome coronavirus 2, UniProt P0DTC2)
Assay type: binding

Sequence: MYEEFKAED
- binding affinity to RBD of S protein, in words: extremely weak binder
